Reference: patent US9200017B2, “Multimodal imaging of fibrin” (The General Hospital Corporation, priority 2009, dated 2015)

Molecular target: T1, Thrombus (Rattus norvegicus, UniProt P02680+P06399+P14480)
T1 construct: thrombin cleaves fibrinopeptides on fibrinogen resulting in an end-to-end polymerization to give the polymer fibrin; A day old autologous blood clot was injected into the right internal carotid artery; from tissue; host or cells: autologous blood clot in the right internal carotid artery of Wistar rats
T1 sequence (P06399 37-550 isoform P06399-2 limits assumed): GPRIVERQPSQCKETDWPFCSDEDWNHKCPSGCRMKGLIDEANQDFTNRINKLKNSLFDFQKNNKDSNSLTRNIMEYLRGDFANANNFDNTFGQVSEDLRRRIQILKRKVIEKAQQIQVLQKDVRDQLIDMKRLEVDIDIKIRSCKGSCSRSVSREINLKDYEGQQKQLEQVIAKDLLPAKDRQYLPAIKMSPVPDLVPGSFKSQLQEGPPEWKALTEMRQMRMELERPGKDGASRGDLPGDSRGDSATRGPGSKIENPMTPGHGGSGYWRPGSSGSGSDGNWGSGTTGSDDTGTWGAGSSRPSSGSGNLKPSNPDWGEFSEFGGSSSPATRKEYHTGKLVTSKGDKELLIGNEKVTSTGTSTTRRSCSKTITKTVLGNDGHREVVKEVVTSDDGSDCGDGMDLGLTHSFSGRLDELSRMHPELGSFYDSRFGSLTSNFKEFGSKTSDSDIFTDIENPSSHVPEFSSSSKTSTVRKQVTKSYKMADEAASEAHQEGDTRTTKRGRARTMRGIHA
T1 sequence (P14480 33-479 limits assumed): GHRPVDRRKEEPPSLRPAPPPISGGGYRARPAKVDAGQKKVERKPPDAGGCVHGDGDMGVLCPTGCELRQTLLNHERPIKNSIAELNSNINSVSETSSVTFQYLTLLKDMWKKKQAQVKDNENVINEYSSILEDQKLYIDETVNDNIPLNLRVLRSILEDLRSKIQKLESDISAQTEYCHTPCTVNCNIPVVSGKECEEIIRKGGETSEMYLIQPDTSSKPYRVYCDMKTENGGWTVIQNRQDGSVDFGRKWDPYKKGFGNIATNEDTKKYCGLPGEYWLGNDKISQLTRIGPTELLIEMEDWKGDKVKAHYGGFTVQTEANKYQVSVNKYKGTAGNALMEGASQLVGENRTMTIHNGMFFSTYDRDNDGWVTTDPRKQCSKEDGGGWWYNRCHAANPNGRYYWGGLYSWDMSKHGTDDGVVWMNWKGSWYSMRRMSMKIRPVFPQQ
T1 sequence (P02680 26-437 isoform P02680-2 limits assumed): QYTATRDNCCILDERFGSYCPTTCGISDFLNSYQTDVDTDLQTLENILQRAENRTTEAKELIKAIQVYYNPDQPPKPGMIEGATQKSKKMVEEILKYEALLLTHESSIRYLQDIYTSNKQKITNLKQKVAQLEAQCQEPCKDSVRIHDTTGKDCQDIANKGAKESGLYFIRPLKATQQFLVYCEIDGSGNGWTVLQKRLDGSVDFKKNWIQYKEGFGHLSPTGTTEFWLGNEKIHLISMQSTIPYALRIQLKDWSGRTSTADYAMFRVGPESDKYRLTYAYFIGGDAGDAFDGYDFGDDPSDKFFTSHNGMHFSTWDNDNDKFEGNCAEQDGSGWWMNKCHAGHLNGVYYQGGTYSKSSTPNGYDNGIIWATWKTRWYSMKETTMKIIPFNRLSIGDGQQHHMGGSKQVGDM
Format: in vivo
Settings: ex vivo, 2 h post-injection
Protocol: All animal studies were approved by the Subcommittee on Research Animal Care at Massachusetts General Hospital. The occlusive thrombus model was described previously (Zhang R L, Chopp M, Zhang Z G, Jiang Q, and Ewing J R., Brain Res. 1997 766(1-2):83-92). Briefly, male Wistar rats (350-400 g, n=8; Charles River Laboratories, Wilmington, Mass.) were anaesthetized with isoflurane (1-2% in 70% N2O and 30% O2) and body temperature was kept at 37.5° C. A day old autologous blood clot was injected into the right internal carotid artery (ICA) at the level of the middle cerebral artery (MCA). The femoral vein was cannulated for intravenous delivery of the contrast agent. […]
The ipsilateral (containing the thrombus) and contralateral ICA and MCA, cerebral hemispheres, blood, urine, intraabdominal organs, rectus femoris muscle and femur bone were collected from all the animals, weighed and radioactivity measured on a gamma counter. The percent of the injected dose per gram of tissue (% ID/g) was calculated by dividing the counts of ^64Cu/g of tissue by the total counts of the injected dose, based on an aliquot of the injected dose, with correction for radioactive decay. Tissues were later homogenized in nitric acid and analyzed for Gd concentration by inductively coupled plasma-mass spectrometry (ICP-MS).

Concentration of 64Cu in thrombus relative to contralateral vessel, blood plasma, brain, or muscle (p<0.005): at least 4 fold
Gd concentration in thrombus relative to contralateral vessel, blood plasma, brain, or muscle (ICP-MS, p<0.0001): over 6 fold
Substance: Gd3-EP-2104R-Cu [Compound 21]
